Assay results published in ChEMBL document CHEMBL1154007, “Discovery and development of aurora kinase inhibitors as anticancer agents” (J Med Chem, 2009).
Structures can show the parent of a compound that is named as a salt.

Assays:
[1] = biological target: T1, Aurora kinase B (Homo sapiens, UniProt Q96GD4); experiment: Inhibition of aurora B in human SW620 cells assessed as inhibition of histone H3 phosphorylation; assay type: cell-based, SW-620
[2] = biological target: T1, Aurora kinase B; experiment: Inhibition of aurora B kinase
[3] = biological target: T2, Aurora kinase A (Homo sapiens, UniProt O14965)
T2 sequence (O14965 whole entry): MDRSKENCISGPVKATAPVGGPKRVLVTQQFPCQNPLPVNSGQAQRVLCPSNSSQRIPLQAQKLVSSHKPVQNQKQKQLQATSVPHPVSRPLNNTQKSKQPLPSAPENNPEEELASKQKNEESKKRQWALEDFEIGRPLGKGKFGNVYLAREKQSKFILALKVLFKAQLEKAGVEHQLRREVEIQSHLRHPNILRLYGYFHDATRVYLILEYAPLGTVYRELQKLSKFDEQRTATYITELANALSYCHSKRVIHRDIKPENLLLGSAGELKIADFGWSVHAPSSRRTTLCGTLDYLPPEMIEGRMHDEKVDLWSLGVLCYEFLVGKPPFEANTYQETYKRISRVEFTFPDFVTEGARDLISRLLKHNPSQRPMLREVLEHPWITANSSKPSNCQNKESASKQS

[4] = biological target: Glycogen synthase kinase-3 beta (Homo sapiens, UniProt P49841); experiment: Inhibition of Gsk3beta
Sequence of Glycogen synthase kinase-3 beta (P49841 whole entry): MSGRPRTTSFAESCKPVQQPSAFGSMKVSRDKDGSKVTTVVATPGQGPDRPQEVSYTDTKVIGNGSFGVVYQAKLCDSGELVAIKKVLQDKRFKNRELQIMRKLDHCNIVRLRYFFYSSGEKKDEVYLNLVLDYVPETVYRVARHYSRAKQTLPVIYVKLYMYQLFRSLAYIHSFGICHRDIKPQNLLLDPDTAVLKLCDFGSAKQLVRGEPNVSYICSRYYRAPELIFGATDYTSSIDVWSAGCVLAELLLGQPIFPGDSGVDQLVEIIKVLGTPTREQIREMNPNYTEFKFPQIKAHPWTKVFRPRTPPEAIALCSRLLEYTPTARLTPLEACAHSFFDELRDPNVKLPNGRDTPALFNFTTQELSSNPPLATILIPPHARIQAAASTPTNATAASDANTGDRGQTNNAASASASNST

[5] = biological target: Proto-oncogene tyrosine-protein kinase Src (Homo sapiens, UniProt P12931); experiment: Inhibition of Src
Sequence of Proto-oncogene tyrosine-protein kinase Src (P12931 2-536 limits assumed): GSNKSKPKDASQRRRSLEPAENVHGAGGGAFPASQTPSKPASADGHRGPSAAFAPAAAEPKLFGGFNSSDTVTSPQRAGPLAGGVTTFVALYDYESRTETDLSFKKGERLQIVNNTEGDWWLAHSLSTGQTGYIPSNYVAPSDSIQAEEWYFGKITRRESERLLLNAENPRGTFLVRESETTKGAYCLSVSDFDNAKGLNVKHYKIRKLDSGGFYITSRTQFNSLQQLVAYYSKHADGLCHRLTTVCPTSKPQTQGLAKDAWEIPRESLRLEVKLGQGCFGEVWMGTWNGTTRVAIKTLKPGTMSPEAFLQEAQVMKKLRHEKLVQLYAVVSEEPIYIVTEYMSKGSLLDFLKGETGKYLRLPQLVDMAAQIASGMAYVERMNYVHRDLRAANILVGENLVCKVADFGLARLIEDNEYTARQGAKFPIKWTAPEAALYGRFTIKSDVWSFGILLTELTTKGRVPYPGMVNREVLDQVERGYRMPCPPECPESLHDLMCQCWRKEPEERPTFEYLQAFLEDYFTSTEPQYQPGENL

[6] = test system: COLO 205; experiment: Antiproliferative activity against human COLO205 cells assessed as inhibition of thymidine uptake after 96 hrs; assay type: functional, cell-based; settings: COLO 205, 96 h
[7] = test system: HCT-116; experiment: Antiproliferative activity against human HCT116 cells assessed as BrdU incorporation after 72 hrs; assay type: functional, cell-based; settings: HCT-116, 72 h
[8] = Aqueous solubility at pH 7.4; assay type: physicochemical
[9] = Half life in iv dosed rat; assay type: ADME, organism-based; settings: in vivo
[10] = Bioavailability in […] rat; assay type: ADME, organism-based; settings: in vivo
[11] = Toxicity in po dosed rat assessed at maximum tolerated dose after 2 weeks; assay type: organism-based; settings: in vivo
[12] = species: Rattus norvegicus; experiment: Antitumor activity in rat assessed as inhibition of tumor volume; assay type: functional
[13] = Volume of distribution at steady state in iv dosed rat; assay type: ADME, organism-based; settings: in vivo, read-out: Vdss
[14] = Clearance in iv dosed rat; assay type: ADME, organism-based; settings: in vivo
[15] = biological target: Tyrosine-protein kinase Lck (Homo sapiens, UniProt P06239); experiment: Inhibition of Lck
Sequence of Tyrosine-protein kinase Lck (P06239 whole entry): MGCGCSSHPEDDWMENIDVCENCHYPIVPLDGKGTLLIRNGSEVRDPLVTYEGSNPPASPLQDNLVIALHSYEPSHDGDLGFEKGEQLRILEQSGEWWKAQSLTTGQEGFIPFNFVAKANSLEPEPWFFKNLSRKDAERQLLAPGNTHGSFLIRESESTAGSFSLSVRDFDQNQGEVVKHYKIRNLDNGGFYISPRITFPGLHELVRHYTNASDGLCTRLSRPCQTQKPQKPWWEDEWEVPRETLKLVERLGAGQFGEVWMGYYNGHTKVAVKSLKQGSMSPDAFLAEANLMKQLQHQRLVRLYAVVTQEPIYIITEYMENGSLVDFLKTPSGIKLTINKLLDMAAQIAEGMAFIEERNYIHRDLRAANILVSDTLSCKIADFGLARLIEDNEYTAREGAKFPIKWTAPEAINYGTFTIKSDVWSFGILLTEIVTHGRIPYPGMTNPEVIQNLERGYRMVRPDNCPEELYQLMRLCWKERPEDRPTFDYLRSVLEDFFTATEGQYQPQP

[16] = biological target: T3, Aurora kinase C (Homo sapiens, UniProt Q9UQB9); experiment: Inhibition of aurora C kinase
T3 sequence (Q9UQB9 whole entry): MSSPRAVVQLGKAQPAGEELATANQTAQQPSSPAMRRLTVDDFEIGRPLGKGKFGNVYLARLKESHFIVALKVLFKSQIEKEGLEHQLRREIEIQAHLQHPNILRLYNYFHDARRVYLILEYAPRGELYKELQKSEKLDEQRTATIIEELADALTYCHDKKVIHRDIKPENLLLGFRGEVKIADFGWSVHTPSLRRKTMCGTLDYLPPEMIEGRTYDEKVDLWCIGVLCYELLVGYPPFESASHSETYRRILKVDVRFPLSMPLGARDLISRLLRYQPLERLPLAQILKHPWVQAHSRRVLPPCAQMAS

[17] = test system: A2780; experiment: Antiproliferative activity against human A2780 cells assessed as accumulation of 4N DNA; assay type: functional, cell-based
[18] = Clearance in iv infused tumor bearing mouse; assay type: ADME, organism-based; settings: in vivo
[19] = Volume of distribution in iv infused tumor bearing mouse; assay type: ADME, organism-based; settings: in vivo
[20] = Elimination half life in iv infused tumor bearing mouse; assay type: ADME, organism-based; settings: in vivo, read-out: beta t1/2 (converted)
[21] = Drug level in tumor bearing mouse plasma at 30 mg/kg after 24 hrs; assay type: ADME, organism-based; set-up: dose 30 mg/kg; settings: read-out: Activity
[22] = Drug level in tumor bearing mouse tumor at 30 mg/kg after 24 hrs; assay type: ADME, organism-based, Neoplasm; set-up: dose 30 mg/kg; settings: read-out: Activity
[23] = test system: Homo sapiens; experiment: Drug elimination in human patient after 5 days of iv infusion; assay type: ADME, organism-based; settings: in vivo, 120 h

T1 sequence (Q96GD4 whole entry): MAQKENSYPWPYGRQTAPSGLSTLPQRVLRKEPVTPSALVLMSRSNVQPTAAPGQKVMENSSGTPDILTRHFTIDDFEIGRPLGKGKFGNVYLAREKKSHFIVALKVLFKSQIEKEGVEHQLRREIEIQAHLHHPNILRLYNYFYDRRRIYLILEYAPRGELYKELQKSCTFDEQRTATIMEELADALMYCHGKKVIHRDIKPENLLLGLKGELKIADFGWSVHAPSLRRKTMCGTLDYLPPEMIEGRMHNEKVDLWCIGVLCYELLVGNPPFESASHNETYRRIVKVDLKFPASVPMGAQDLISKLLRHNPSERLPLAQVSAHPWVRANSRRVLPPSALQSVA

For `CCN(CCO)CCCOc1cc2ncnc(Nc3cc(CC(=O)Nc4cccc(F)c4F)[nH]n3)c2cc1OC`, the IC50 [1] was 45 nM, the IC50 [2] was less than 1 nM and the IC50 [3] was 360 nM.
With `CCN(CCO)CCCOc1cc2ncnc(Nc3cc(CC(=O)Nc4cccc(F)c4)[nH]n3)c2cc1OC` the IC50 [1] was 270 nM, the IC50 [2] was 1 nM and the IC50 [3] was 190 nM.
With `CCN(CCO)CCCOc1ccc2c(Nc3cc(CC(=O)Nc4cccc(F)c4F)[nH]n3)ncnc2c1` the IC50 [2] was 7.5 nM and the IC50 [3] was 800 nM.
`COc1cc2c(Nc3cc(CC(=O)Nc4cccc(F)c4F)[nH]n3)ncnc2cc1OCCCN(CCO)CC(C)C` showed an IC50 [1] of less than 1 nM, an IC50 [2] of less than 1 nM and an IC50 [3] of 18 nM.
Compound `CCCN(CCO)CCCOc1cc2ncnc(Nc3cc(CC(=O)Nc4cccc(F)c4)[nH]n3)c2cc1OC` has an IC50 [1] of 290 nM, an IC50 [2] of 2 nM and an IC50 [3] of 220 nM.
For `Cc1cc(Nc2nc(-c3ccccc3)nc3ccccc23)n[nH]1`, the Ki [4] was 22 nM, the Ki [5] was 81 nM and the IC50 [6] was 1400 nM. The Ki [3] was 58 nM.
`COc1cc2c(Nc3cnc(NC(=O)c4ccccc4)nc3)ncnc2cc1OCCCN1CCOCC1` showed an IC50 [2] of 1 nM.
Work on `O=C(Nc1cccc(C(F)(F)F)c1)Nc1ncc(CCNc2ncnc3ccsc23)s1` yielded an EC50 [7] of 13 nM.
`O=C(Nc1ccccc1)Nc1ncc(CCNc2ncnc3ccsc23)s1` showed an EC50 [7] of 45 nM.
`COc1cc2c(Nc3ncc(C(=O)Nc4ccccc4)s3)ncnc2cc1OCCCN1CCOCC1` showed an IC50 [2] of 42 nM and an IC50 [3] of 4 nM.
`CCC(=O)Nc1ccc(Sc2nc(Nc3cc(C)n[nH]3)cc(N3CCOCC3)n2)cc1` gave an IC50 [6] of 135 nM, a solubility [8] of 5.4 µM and an IC50 [2] of 14 nM. It also gave an IC50 [3] of 1.7 nM.
`CCC(=O)Nc1ccc(Sc2nc(Nc3cc(C)n[nH]3)cc(N3CCNCC3)n2)cc1` gave an IC50 [6] of 79 nM, a solubility [8] of 296 µM and an IC50 [2] of 18 nM. The IC50 [3] was 3.7 nM.
In the case of `CCC(=O)Nc1ccc(Sc2nc(Nc3cc(C)n[nH]3)cc(N3CCN(C(C)(C)C)CC3)n2)cc1`, the IC50 [6] is reported as 2 nM, the solubility [8] is reported as 221 µM and the IC50 [2] is reported as 11 nM. For the same compound, the IC50 [3] was 1.3 nM.
For `CC(C)(C)c1ccc(C(=O)Nc2n[nH]c3c2CN(C(=O)Cc2cccs2)C3)cc1`, the IC50 [7] was 2000 nM.
`COc1cc2c(Nc3nc(C(=O)Nc4ccccc4)cs3)ncnc2cc1OCCCN1CCOCC1` gave an IC50 [2] of 530 nM and an IC50 [3] of 182 nM.
`CCC(=O)Nc1ccc(Sc2nc(Nc3cc(C)[nH]n3)cc(N3CCN(C)CC3)n2)cc1` gave an IC50 [6] of 24 nM, a solubility [8] of 63.4 µM and an IC50 [2] of 20 nM. The IC50 [3] was 1.6 nM.
With `CC(=O)Nc1ccc(Sc2nc(Nc3cc(C)n[nH]3)c3ccccc3n2)cc1` the half-life [9] was 1 h, the bioavailability [10] was 44% and the MTD at 336 h [11] was 300 mg/kg. The “inhibition (INH)” value [12] was 50%, the Ki [4] was 1030 nM and the Ki [5] was 1260 nM. It also gave an IC50 [6] of 480 nM, a Vd [13] of 0.38 L/kg and a Ki [2] of 27 nM. The clearance [14] was 7 mL/min and the Ki [3] was 4 nM.
`CCC(=O)Nc1ccc(Sc2nc(Nc3cc(C)n[nH]3)cc(N3CCCCC3)n2)cc1` showed an IC50 [6] of 400 nM, a solubility [8] of 2.5 µg/mL and an IC50 [2] of 8 nM. The IC50 [3] was 1.6 nM.
In the case of `CCC(=O)Nc1ccc(Sc2nc(Nc3cc(C)n[nH]3)cc(N3CCN(C4CC4)CC3)n2)cc1`, the IC50 [6] is reported as 75 nM, the solubility [8] is reported as 12.8 µM and the IC50 [2] is reported as 9.5 nM. For the same compound, the IC50 [3] was less than 1 nM.
With `COc1cc2c(Nc3ccc(C(=O)Nc4ccccc4)s3)ncnc2cc1OCCCN1CCOCC1` the IC50 [2] was 57 nM and the IC50 [3] was 11 nM.
`CCC(=O)Nc1ccc(Sc2nc(Nc3cc(C)n[nH]3)cc(N3CCN(CC)CC3)n2)cc1` showed an IC50 [6] of 24 nM, a solubility [8] of 114 µM and an IC50 [2] of 25 nM. For the same compound, the IC50 [3] was less than 1 nM.
Work on `CN1CCN(c2ccc(C(=O)Nc3n[nH]c4c3CN(C(=O)Cc3cccs3)C4)cc2)CC1` yielded an IC50 [7] of 570 nM.
`COc1cc2c(Nc3ncc(CC(=O)Nc4ccccc4)s3)ncnc2cc1OCCCN1CCOCC1` showed an IC50 [2] of less than 1 nM and an IC50 [3] of less than 1 nM.
Work on `COc1cc(Nc2ncc3c(n2)-c2ccc(Cl)cc2C(c2c(F)cccc2OC)=NC3)ccc1C(=O)O` [ALISERTIB] yielded an IC50 [15] of 320 nM.
Work on `O=C(Nc1c[nH]nc1-c1nc2cc(CN3CCOCC3)ccc2[nH]1)NC1CC1` [AT-9283] yielded an IC50 [2] of 3 nM.
`CCN(CCCOc1ccc2c(Nc3cc(CC(=O)Nc4cccc(F)c4)n[nH]3)ncnc2c1)CCOP(=O)(O)O` [BARASERTIB] showed a half-life [9] of 5 h and a clearance [14] of 14 mL/min/kg.
For `Cc1nc(N)sc1-c1ccnc(Nc2ccc(N3CCOCC3)cc2)n1` [CYC-116], the IC50 [16] was 65 nM.
With `CO[C@@H](C(=O)N1Cc2n[nH]c(NC(=O)c3ccc(N4CCN(C)CC4)cc3)c2C1)c1ccccc1` [DANUSERTIB] the IC50 [17] was 28000 nM, the clearance [18] was 28.3 mL/min/kg and the Vd [19] was 2.7 L/kg. For the same compound, the half-life [20] was 3.7 h.
In the case of `O=C(O)c1ccc(Nc2ncc3c(n2)-c2ccc(Cl)cc2C(c2c(F)cccc2F)=NC3)cc1` [MLN-8054], the concentration at 24 h [21] is reported as greater than 1000 nM and the concentration at 24 h [22] is reported as greater than 2000 nM.
Compound `O=C(Nc1cccc(Cl)c1)Nc1ncc(CCNc2ncnc3ccsc23)s1` [SNS-314 MESYLATE] has an EC50 [7] of 6 nM.
Compound `Cc1cc(Nc2cc(N3CCN(C)CC3)nc(Sc3ccc(NC(=O)C4CC4)cc3)n2)[nH]n1` [TOZASERTIB] has an Activity [23] of 75%.
